Measurements taken from patent publication US9505745B2, “Enhancer of zeste homolog 2 inhibitors” (GlaxoSmithKline Intellectual Property (No.2) Limited, priority 2013, dated 2016).
Where a name gives a salt, the structure may show the parent alone.

Each compound was assayed against EZH2 within the PRC2 complex (Homo sapiens (Human), UniProt Q15910) (assay: EZH2 methyltransferase SPA, biotinylated histone H3K27 peptide substrate (Assay Protocol 2)). Conditions: 3H-SAM, ≦10 nM approaches limit of detection.
Type: biochemical
Method: Compounds contained herein were evaluated for their ability to inhibit the methyltransferase activity of EZH2 within the PRC2 complex. Human PRC2 complex was prepared by co-expressing each of the 5 member proteins (FLAG-EZH2, EED, SUZ12, RbAp48, AEBP2) in Sf9 cells followed by co-purification. Enzyme activity was measured in a scintillation proximity assay (SPA) where a tritiated methyl group is transferred from 3H-SAM to a lysine residue on a biotinylated, unmethylated peptide substrate derived from histone H3. The peptides were captured on streptavidin-coated SPA beads and the resulting signal was read on a ViewLux plate reader.
Part A. Compound Preparation
• 4. Prepare 10 mM stock of compounds from solid in 100% DMSO. • 5. Set up an 11-point serial dilution (1:4 dilution, top concentration 10 mM) in 100% DMSO for each test compound in a 384 well plate leaving columns 6 and 18 for DMSO controls. • 6. Dispense 10 nL of compound from the dilution plate into reaction plates (Corning, 384-well polystyrene NBS, Cat#3673). Part B. Reagent Preparation Prepare the following solutions: • 7. 1× Base Buffer, 50 mM Tris-HCl, pH 8, 2 mM MgCl2: Per 1 L of base buffer, combine 1 M Tris-HCl, pH 8 (50 mL), 1 M MgCl2 (2 mL), and distilled water (948 mL). • 8. 1× Assay Buffer: Per 10 mL of 1× Assay Buffer, combine 1× Base Buffer (9.96 mL), 1 M DTT (40 uL), and 10% Tween-20 (1 uL) to provide a final concentration of 50 mM Tris-HCl, pH 8, 2 mM MgCl2, 4 mM DTT, 0.001% Tween-20. • 9. 2× Enzyme Solution: Per 10 mL of 2× Enzyme Solution, combine 1× Assay Buffer (9.99 mL) and 3.24 uM EZH2 5 member complex (6.17 uL) to provide a final enzyme concentration of 1 nM. • 10. SPA Bead Solution: Per 1 mL of SPA Bead Solution, combine Streptavidin coated SPA beads (PerkinElmer, Cat#RPNQ0261, 40 mg) and 1× Assay Buffer (1 mL) to provide a working concentration of 40 mg/mL. • 11. 2× Substrate Solution: Per 10 mL of 2× Substrate Solution, combine 40 mg/mL SPA Bead Solution (375 uL), 1 mM biotinylated histone H3K27 peptide (200 uL), 12.5 uM 3H-SAM (240 uL; 1 mCi/mL), 1 mM cold SAM (57 uL), and 1× Assay Buffer (9.13 mL) to provide a final concentration of 0.75 mg/mL SPA Bead Solution, 10 uM biotinylated histone H3K27 peptide, 0.15 uM 3H-SAM (˜12 uCi/mL 3H-SAM), and 2.85 uM cold SAM. • 12. 2.67× Quench Solution: Per 10 mL of 2.67× Quench Solution, combine 1× Assay Buffer (9.73 mL) and 10 mM cold SAM (267 uL) to provide a final concentration of 100 uM cold SAM. Part C. Assay Reaction in 384-well Grenier Bio-One Plates Compound Addition • 3. Stamp 10 nL/well of 1000× Compound to test wells (as noted above). • 4. Stamp 10 nL/well of 100% DMSO to columns 6 & 18 (high and low controls, respectively). Assay • 10. Dispense 5 uL/well of 1× Assay Buffer to column 18 (low control reactions). • 11. Dispense 5 uL/well of 2× Substrate Solution to columns 1-24 (note: substrate solution should be mixed to ensure homogeneous bead suspension before dispensing into matrix reservoir). • 12. Dispense 5 uL/well of 2× Enzyme Solution to columns 1-17, 19-24. • 13. Incubate the reaction for 60 min at room temperature. Quench • 5. Dispense 6 uL/well of the 2.67× Quench Solution to columns 1-24. • 6. Seal assay plates and spin for ˜1 min at 500 rpm. • 7. Dark adapt plates in the ViewLux instrument for 15-60 min. Read plates • 2. Read the assay plates on the Viewlux Plate Reader utilizing the 613 nm emission filter or clear filter (300 s exposure). Reagent addition can be done manually or with automated liquid handler. Results
Percent inhibition was calculated relative to the DMSO control for each compound concentration and the resulting values were fit using standard IC50 fitting parameters within the ABASE data fitting software package.

Chain of EZH2 within the PRC2 complex (Q15910 whole entry): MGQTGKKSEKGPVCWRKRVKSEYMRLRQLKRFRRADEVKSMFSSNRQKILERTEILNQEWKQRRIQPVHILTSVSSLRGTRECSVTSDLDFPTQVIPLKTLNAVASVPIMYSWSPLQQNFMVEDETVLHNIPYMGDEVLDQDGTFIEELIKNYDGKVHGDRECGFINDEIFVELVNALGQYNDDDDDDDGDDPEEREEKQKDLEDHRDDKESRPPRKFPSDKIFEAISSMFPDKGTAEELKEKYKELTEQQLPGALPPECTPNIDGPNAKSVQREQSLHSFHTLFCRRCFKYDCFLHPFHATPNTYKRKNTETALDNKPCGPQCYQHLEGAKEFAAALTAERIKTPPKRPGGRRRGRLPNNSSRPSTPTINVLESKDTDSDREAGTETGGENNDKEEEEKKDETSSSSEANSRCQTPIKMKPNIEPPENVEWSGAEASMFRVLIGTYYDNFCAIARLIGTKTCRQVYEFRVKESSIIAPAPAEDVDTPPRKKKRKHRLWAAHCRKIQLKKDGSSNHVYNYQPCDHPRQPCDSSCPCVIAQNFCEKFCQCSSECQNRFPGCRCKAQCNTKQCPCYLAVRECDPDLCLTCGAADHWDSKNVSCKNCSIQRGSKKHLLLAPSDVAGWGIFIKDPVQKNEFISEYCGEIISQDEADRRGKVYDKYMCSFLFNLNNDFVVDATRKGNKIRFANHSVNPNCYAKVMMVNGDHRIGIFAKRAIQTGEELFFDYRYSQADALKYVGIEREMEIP
Chain of EZH2 within the PRC2 complex (O75530 whole entry partner): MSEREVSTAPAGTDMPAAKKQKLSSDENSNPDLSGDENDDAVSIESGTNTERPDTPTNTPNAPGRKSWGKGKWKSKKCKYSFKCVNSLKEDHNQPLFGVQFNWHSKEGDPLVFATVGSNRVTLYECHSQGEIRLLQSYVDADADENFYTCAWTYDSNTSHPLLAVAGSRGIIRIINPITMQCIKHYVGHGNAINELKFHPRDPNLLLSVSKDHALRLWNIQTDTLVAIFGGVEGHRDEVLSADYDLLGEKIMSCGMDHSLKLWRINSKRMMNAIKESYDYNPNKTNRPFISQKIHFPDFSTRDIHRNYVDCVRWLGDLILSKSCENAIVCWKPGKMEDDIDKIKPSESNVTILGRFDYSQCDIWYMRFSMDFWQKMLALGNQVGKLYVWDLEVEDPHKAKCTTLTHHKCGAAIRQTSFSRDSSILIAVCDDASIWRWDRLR
Chain of EZH2 within the PRC2 complex (Q15022 whole entry partner): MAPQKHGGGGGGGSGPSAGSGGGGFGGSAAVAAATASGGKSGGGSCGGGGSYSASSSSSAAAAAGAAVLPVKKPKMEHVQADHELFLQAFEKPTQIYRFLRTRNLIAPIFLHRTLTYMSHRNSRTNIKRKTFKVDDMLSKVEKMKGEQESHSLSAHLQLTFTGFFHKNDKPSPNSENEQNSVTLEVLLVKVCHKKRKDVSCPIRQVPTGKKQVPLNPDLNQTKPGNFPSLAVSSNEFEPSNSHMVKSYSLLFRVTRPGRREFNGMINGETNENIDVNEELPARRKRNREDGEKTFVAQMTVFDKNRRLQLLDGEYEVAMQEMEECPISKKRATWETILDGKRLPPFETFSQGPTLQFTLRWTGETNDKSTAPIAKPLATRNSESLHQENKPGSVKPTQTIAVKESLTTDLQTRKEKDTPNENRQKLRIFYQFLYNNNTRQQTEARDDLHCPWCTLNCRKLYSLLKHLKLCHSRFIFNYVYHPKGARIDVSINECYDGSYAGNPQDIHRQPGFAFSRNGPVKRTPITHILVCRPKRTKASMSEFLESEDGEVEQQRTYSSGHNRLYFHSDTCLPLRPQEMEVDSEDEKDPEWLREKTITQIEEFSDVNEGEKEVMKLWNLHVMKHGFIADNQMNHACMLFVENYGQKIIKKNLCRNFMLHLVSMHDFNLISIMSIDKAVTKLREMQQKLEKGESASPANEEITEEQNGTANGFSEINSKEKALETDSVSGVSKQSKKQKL
Chain of EZH2 within the PRC2 complex (Q09028 whole entry partner): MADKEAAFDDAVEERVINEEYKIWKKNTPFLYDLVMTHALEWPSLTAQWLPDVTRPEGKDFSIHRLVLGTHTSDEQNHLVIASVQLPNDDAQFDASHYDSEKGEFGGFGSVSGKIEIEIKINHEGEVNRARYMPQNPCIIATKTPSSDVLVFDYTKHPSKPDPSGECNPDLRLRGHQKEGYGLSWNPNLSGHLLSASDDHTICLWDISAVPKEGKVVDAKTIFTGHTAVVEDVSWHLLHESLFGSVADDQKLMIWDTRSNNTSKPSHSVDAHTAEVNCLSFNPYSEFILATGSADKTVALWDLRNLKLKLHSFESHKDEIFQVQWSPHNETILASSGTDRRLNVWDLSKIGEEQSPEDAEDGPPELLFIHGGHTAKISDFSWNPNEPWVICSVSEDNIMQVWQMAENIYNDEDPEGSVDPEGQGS
Chain of EZH2 within the PRC2 complex (Q6ZN18 whole entry partner): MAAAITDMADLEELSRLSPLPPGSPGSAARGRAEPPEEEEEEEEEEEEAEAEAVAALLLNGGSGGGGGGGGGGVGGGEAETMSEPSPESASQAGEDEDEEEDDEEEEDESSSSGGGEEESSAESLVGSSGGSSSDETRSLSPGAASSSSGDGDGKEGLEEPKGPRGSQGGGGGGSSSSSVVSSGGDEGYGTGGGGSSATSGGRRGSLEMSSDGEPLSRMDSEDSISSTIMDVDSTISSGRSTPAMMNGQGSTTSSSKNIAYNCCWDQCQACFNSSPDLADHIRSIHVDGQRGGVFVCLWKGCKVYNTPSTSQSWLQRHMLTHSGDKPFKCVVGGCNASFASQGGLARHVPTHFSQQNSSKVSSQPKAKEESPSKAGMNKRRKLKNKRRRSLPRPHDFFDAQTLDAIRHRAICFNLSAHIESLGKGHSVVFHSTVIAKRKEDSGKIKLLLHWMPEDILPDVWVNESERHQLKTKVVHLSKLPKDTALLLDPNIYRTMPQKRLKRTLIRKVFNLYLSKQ

Structure (SMILES) | IC50
CCC(c1scc(C(=O)NCc2c(C)cc(C)[nH]c2=O)c1C)[C@H]1CC[C@H](N(C)C)CC1 (single isomer, unassigned; (+)) [Example 45, (+)-N-((4,6-Dimethyl-2-oxo-1,2-dihydropyridin-3-yl)methyl)-5-(1-((trans)-4-(dimethylamino)cyclohexyl)propyl)-4-methylthiophene-3-carboxamide] | ≤ 10 nM
CCC(c1scc(C(=O)NCc2c(C)cc(C)[nH]c2=O)c1C)[C@H]1CC[C@@H](N(C)C)CC1 (single isomer, unassigned; (+)) [Example 46, (+)-N-((4,6-Dimethyl-2-oxo-1,2-dihydropyridin-3-yl)methyl)-5-(1-((cis)-4-(dimethylamino)cyclohexyl)propyl)-4-methylthiophene-3-carboxamide] | 316 nM
CCC(c1scc(C(=O)NCc2c(C)cc(C)[nH]c2=O)c1C)[C@H]1CC[C@H](N(C)C)CC1 (single isomer, unassigned; (-)) [Example 44, (−)-N-((4,6-Dimethyl-2-oxo-1,2-dihydropyridin-3-yl)methyl)-5-(1-((trans)-4-(dimethylamino)cyclohexyl)propyl)-4-methylthiophene-3-carboxamide] | 20 nM
C/C=C(/c1scc(C(=O)NCc2c(C)cc(C)[nH]c2=O)c1C)[C@H]1CC[C@H](N)CC1 [Example 35, 5-((E)-1-((trans)-4-Aminocyclohexyl)prop-1-en-1-yl)-N-((4,6-dimethyl-2-oxo-1,2-dihydropyridin-3-yl)methyl)-4-methylthiophene-3-carboxamide] | 13 nM
Cc1cc(C)c(CNC(=O)c2csc(C(O)[C@H]3CC[C@H](N)CC3)c2C)c(=O)[nH]1 (stereo partly drawn) [Example 37, 5-(((trans)-4-Aminocyclohexyl)(hydroxy)methyl)-N-((4,6-dimethyl-2-oxo-1,2-dihydropyridin-3-yl)methyl)-4-methylthiophene-3-carboxamide] | 501 nM
Cc1cc(C)c(CNC(=O)c2csc(C(O)[C@H]3CC[C@H](N(C)C)CC3)c2C)c(=O)[nH]1 (stereo partly drawn) [Example 38, N-((4,6-dimethyl-2-oxo-1,2-dihydropyridin-3-yl)methyl)-5-(((trans)-4-(dimethylamino)cyclohexyl)(hydroxy)methyl)-4-methylthiophene-3-carboxamide] | 158 nM
CCC(c1scc(C(=O)NCc2c(C)cc(C)[nH]c2=O)c1C)C1CCN(C(=O)OC(C)(C)C)CC1 (centres unmarked) [Example 39, tert-Butyl 4-(1-(4-(((4,6-dimethyl-2-oxo-1,2-dihydropyridin-3-yl)methyl)carbamoyl)-3-methylthiophen-2-yl)propyl)piperidine-1-carboxylate] | 50 nM
CCC(c1scc(C(=O)NCc2c(C)cc(C)[nH]c2=O)c1C)C1CCNCC1 (centres unmarked) [Example 40, N-((4,6-Dimethyl-2-oxo-1,2-dihydropyridin-3-yl)methyl)-4-methyl-5-(1-(piperidin-4-yl)propyl)thiophene-3-carboxamide] | 20 nM
CC[C@H](c1scc(C(=O)NCc2c(C)cc(C)[nH]c2=O)c1C)N1CCC(N(C)C)CC1 [Example 42, (R)-(+)-N-((4,6-dimethyl-2-oxo-1,2-dihydropyridin-3-yl)methyl)-5-(1-(4-(dimethylamino)piperidin-1-yl)propyl)-4-methylthiophene-3-carboxamide] | 316 nM
CCC(=C1CCNCC1)c1scc(C(=O)NCc2c(C)cc(C)[nH]c2=O)c1C [Example 48, N-((4,6-dimethyl-2-oxo-1,2-dihydropyridin-3-yl)methyl)-4-methyl-5-(1-(piperidin-4-ylidene)propyl)thiophene-3-carboxamide] | ≤ 10 nM
CCN(c1sc(C#N)c(C(=O)NCc2c(C)cc(C)[nH]c2=O)c1C)[C@H]1CC[C@H](N(C)C)CC1 [Example 51, 2-Cyano-N-((4,6-dimethyl-2-oxo-1,2-dihydropyridin-3-yl)methyl)-5-(((trans)-4-(dimethylamino)cyclohexyl)(ethyl)amino)-4-methylthiophene-3-carboxamide] | 25 nM
CCN(CC)c1sc(Br)c(C(=O)NCc2c(C)cc(C)[nH]c2=O)c1C [Example 52, 2-Bromo-5-(diethylamino)-N-((4,6-dimethyl-2-oxo-1,2-dihydropyridin-3-yl)methyl)-4-methylthiophene-3-carboxamide] | 316 nM
CCN(c1sc(Cl)c(C(=O)NCc2c(C)cc(C)[nH]c2=O)c1C)C1CCOCC1 [Example 53, 2-Chloro-N-((4,6-dimethyl-2-oxo-1,2-dihydropyridin-3-yl)methyl)-5-(ethyl(tetrahydro-2H-pyran-4-yl)amino)-4-methylthiophene-3-carboxamide] | 16 nM

Second part, the compound after the results:

IC50 | Structure (SMILES)
13 nM | CCC(c1scc(C(=O)NCc2c(C)cc(C)[nH]c2=O)c1C)[C@H]1CC[C@@H](N(C)C)CC1 (single isomer, unassigned; (-)) [Example 47, (−)-N-((4,6-Dimethyl-2-oxo-1,2-dihydropyridin-3-yl)methyl)-5-(1-((cis)-4-(dimethylamino)cyclohexyl)propyl)-4-methylthiophene-3-carboxamide]
≤ 10 nM | C/C=C(/c1scc(C(=O)NCc2c(C)cc(C)[nH]c2=O)c1C)C1CCNCC1 [Example 33, (E)-N-((4,6-Dimethyl-2-oxo-1,2-dihydropyridin-3-yl)methyl)-4-methyl-5-(1-(piperidin-4-yl)prop-1-en-1-yl)thiophene-3-carboxamide]
100 nM | C/C=C(/c1scc(C(=O)NCc2c(C)cc(C)[nH]c2=O)c1C)[C@H]1CC[C@H](NC(=O)OC(C)(C)C)CC1 [Example 34, tert-Butyl ((trans)-4-((E)-1-(4-(((4,6-dimethyl-2-oxo-1,2-dihydropyridin-3-yl)methyl)carbamoyl)-3-methylthiophen-2-yl)prop-1-en-1-yl)cyclohexyl)carbamate]
20 nM | CC[C@@H](c1scc(C(=O)NCc2c(C)cc(C)[nH]c2=O)c1C)N1CCC(N(C)C)CC1 [Example 41, (S)-(−)-N-((4,6-Dimethyl-2-oxo-1,2-dihydropyridin-3-yl)methyl)-5-(1-(4-(dimethylamino)piperidin-1-yl)propyl)-4-methylthiophene-3-carboxamide]
16 nM | CCC(c1scc(C(=O)NCc2c(C)cc(C)[nH]c2=O)c1C)[C@H]1CC[C@H](N)CC1 (stereo partly drawn) [Example 43, 5-(1-((trans)-4-Aminocyclohexyl)propyl)-N-((4,6-dimethyl-2-oxo-1,2-dihydropyridin-3-yl)methyl)-4-methylthiophene-3-carboxamide]
126 nM | C=C(c1scc(C(=O)NCc2c(C)cc(C)[nH]c2=O)c1C)C1CCNCC1 [Example 49, N-((4,6-dimethyl-2-oxo-1,2-dihydropyridin-3-yl)methyl)-4-methyl-5-(1-(piperidin-4-yl)vinyl)thiophene-3-carboxamide]
20 nM | CCN(c1sc(Br)c(C(=O)NCc2c(C)cc(C)[nH]c2=O)c1C)[C@H]1CC[C@H](N(C)C)CC1 [Example 50, 2-Bromo-N-((4,6-dimethyl-2-oxo-1,2-dihydropyridin-3-yl)methyl)-5-(((trans)-4-(dimethylamino)cyclohexyl)(ethyl)amino)-4-methylthiophene-3-carboxamide hydrochloride]
